Source: paper PMC7144320, “Antitumor properties of certain spirooxindoles towards hepatocellular carcinoma endowed with antioxidant activity” (Journal of Enzyme Inhibition and Medicinal Chemistry, 2020)
pIC50: −log10 of the molar value. Values joined by “and” are separate entries in the source; they are usually repeats but may differ in a detail not shown here. Equal entries are not always repeated.

Tests used:
[1] = system: HepG2 hepatocellular carcinoma cell line; assay: MTT anti-proliferative assay, HepG2; assay type: cell-based; conditions: Homo sapiens, 48 h of incubation
Method: (§1) Spirooxindoles 6a–p were evaluated for their anti-proliferative potency towards HepG2 liver cancer and PC-3 prostate cancer cell lines. Both cells lines were cultured as monolayers in DMEM supplemented with 10% foetal bovine serum (FBS), L-glutamine (2 mM), penicillin (100 U/mL) and streptomycin sulphate (100 µg/mL). Then, cells were sub-cultured with trypsine/EDTA solution, counted with haemocytometer and plated onto 96-well plates (5000 cells/well) and left overnight so as to form a semi-confluent monolayer.
(§2) Spirooxindoles 6a–p were tested for their in vitro anti-HCC activity against HepG2 cell line, and for their anti-prostate cancer activity against PC-3 cell line by the use of MTT reduction assay. The anticancer drug Adriamycin was co-assayed as the positive control.

[2] = system: PC-3 prostate cancer cell line; assay: MTT anti-proliferative assay, PC-3; assay type: cell-based; conditions: 48 h of incubation
Method: as §1, §2

[3] = Ferric reducing antioxidant power (FRAP); conditions: 593 nm, 30 min at 37 °C
Method: The Benzie and Strain method[33] was adopted to assess the ferric reducing antioxidant power (FRAP) for spirooxindoles 6a–p. Absorbance of mixtures was recorded at 593 nm after incubation for 30 min at 37 °C. FRAP results were expressed as μM Fe^2+ equivalents.
FRAP assay is a widely used antioxidant assay that uses antioxidant substances as reducing agents in a redox-linked colorimetric reaction, wherein Fe^3+ is reduced to Fe^2+ at acidic pH that results in a formation of a coloured ferrous-probe complex from a colourless ferric-probe complex. In this assay, the electron donation capacity (reflecting the electron transfer ability) of the examined compounds is evaluated.
In this study, all spirooxindoles 6a–p herein reported were evaluated for their potential FRAP. The results were expressed as µM Fe^2+ equivalents and presented in Table 6, where the higher µM Fe^2+ equivalents value means higher FRAP and subsequently higher antioxidant capacity.

[4] = DPPH radical scavenging assay; conditions: mean ± SD of three experiments; 30 min, 517 nm
Method: The antioxidant potential of spirooxindoles 6a–p against DPPH˙ was evaluated as per previously described procedures by Brand-Williams et al.[32]. DPPH solution was prepared by dissolving 0.024 g DPPH in methanol (100 mL). In 96-well plates, × μL sample and 200-x μL DPPH solution were added. The plate was incubated for 30 min at room temperature in the dark, and finally, absorbance was recorded at 517 nm wavelength. Ascorbic acid was used as positive control. The percent radical scavenging potential was calculated for each compound via the following equation: Scavenging effect (%) = {(Absorbance of control − Absorbance of sample)/Absorbance of control} × 100.
The DPPH (2,2-diphenyl-1-picrylhydrazyl) radical scavenging activity assay is considered as one of the most common and simple methods for measuring the antioxidant ability to trap free radicals. […] Substances that have the potential to act as electron donors result in reduction of this DPPH radical to the corresponding DPPH2 disclosing their antioxidant potential. The principle of the method relies upon measuring the absorbance of the odd electrons of DPPH at 517 nm. The absorbance decreases, in the presence of free radical scavengers, proportional to the decrease of the DPPH radical concentration.

[5] = system: non-tumorigenic human breast MCF-10A cell line; assay: Cytotoxicity towards non-tumorigenic MCF-10A cells; assay type: cell-based
[6] = system: Bax; assay: ELISA of apoptotic marker Bax in HepG2 cells; assay type: cell-based; conditions: HepG2 treated at IC50 (6.9 µM)
Method: (§3) The levels of the apoptotic markers caspase-3, caspase-9, p53 and Bax, as well as the anti-apoptotic marker Bcl-2 were evaluated by the use of ELISA colorimetric kits per the manufacturer’s instructions, as reported earlier[28]^,[29]. Furthermore, the pro-apoptotic potential of spirooxindole 6a towards HepG2 cells was assessed using FITC Annexin V Apoptosis Detection Kit by flow cytometry, according to the manufacturer’s protocol and referring to the reported procedures[30]^,[31].
(§4) The Bax/Bcl-2 ratio is considered as a decisive value that gives a real insight to the overall pro-apoptotic impact of the examined compound.

[7] = system: caspase-3; assay: ELISA of active caspase-3 in HepG2 cells; assay type: cell-based; conditions: HepG2 treated at IC50 (6.9 µM)
Method: as §3
(§5) The elevated Bax/Bcl-2 ratio aroused the assessment of the expression levels of the pro-apoptotic active caspase-3, caspase-9 and p53 tumour suppressor protein.

[8] = system: p53; assay: ELISA of p53 in HepG2 cells; assay type: cell-based; conditions: HepG2 treated at IC50 (6.9 µM)
Method: as §3, §5

[9] = system: HepG2 cells; assay: Cell cycle analysis (PI staining, flow cytometry); assay type: cell-based; conditions: HepG2, 6.9 µM (IC50), 24 h
Method: The samples were analysed by a flow cytometer (BectonDickinson FACSCalibur, BD, USA) and data were analysed using the CellQuest software (Becton Dickinson).
The impact of spirooxindole 6a on the normal cell cycle progression was investigated using flow cytometric analysis of the DNA ploidy in HepG2 cells. […] Alteration of the Pre-G phase and arrest of G2-M phase may imply apoptosis as a potential mechanism for 6a-induced cancer cell death.

[10] = system: HepG2 cells; assay: Annexin V-FITC/PI apoptosis assay; assay type: cell-based; conditions: HepG2, 6.9 µM (IC50)
Method: as §3

[11] = system: Bcl-2; assay: ELISA of anti-apoptotic marker Bcl-2 in HepG2 cells; assay type: cell-based; conditions: HepG2 treated at IC50 (6.9 µM)
Method: as §3, §4

[12] = system: caspase-9; assay: ELISA of active caspase-9 in HepG2 cells; assay type: cell-based; conditions: HepG2 treated at IC50 (6.9 µM)
Method: as §3, §5

[13] = system: HepG2 hepatocellular carcinoma cell line; assay: MTT anti-proliferative assay, HepG2; assay type: cell-based; conditions: 48 h exposure, phase contrast microscopy

Row | SMILES | pIC50 [1] | pIC50 [2] | DPPH radical scavenging IC50 [4] [mg/L] | FRAP, µM (Fe^2+ Eq.) [3] | pIC50 [5] | further results
1 | O=C1O[C@H]([C@@H](O)CO)C(O)=C1O [Ascorbic acid, reference compound] | – | – | 45.89 ± 2.39 | 13.42 µM (Fe^2+ Eq.) | – | –
2 | N#CC1=C(c2ccccc2)Nc2c(c(-c3cccs3)nn2-c2ccccc2)C12C(=O)Nc1ccccc12 (stereo not shown) [Compound 6a] | 5.16 | 4.93 | 29.76 ± 1.82 | 11.98 µM (Fe^2+ Eq.) | 4.02 | Bax expression level [6]: 232.2 ng/mL; Bax, folds of control [6]: 5.7 folds of control; Bax/Bcl-2 ratio [6]: 92.5; Caspase-3 expression level [7]: 475.9 pg/mL; p53, folds of control [8]: ~10.03 folds of control and ~10 folds of control; p53 expression level [8]: 774.5 pg/mL; decrease of S phase with respect to control [9]: ~0.37 folds; increase of G2/M phase related to control [9]: 2.1 folds; increase of Pre-G phase related to control [9]: 11.9 folds; total increase in apoptosis with respect to control [10]: about 16.3 folds; late apoptosis (upper right quadrant), annexin-V positive cells ([10]; control 0.33%): 14.14%; early apoptosis (lower right quadrant), annexin-V positive cells ([10]; control 0.95%): 6.76%; Bcl-2, folds of control [11]: 0.57 folds of control; Bcl-2 expression level [11]: 2.51 ng/mL; down-regulation of Bcl-2 expression compared to control [11]: ~42%; Caspase-9, folds of control [12]: ~12.27 folds of control; Caspase-9 expression level [12]: 26.92 ng/mL; Morphological changes of HepG2 cells [13]: cell rounding, shrinkage and monolayer disruption
3 | Cc1ccc(C2=C(C#N)C3(C(=O)Nc4ccccc43)c3c(-c4cccs4)nn(-c4ccccc4)c3N2)cc1 (stereo not shown) [Compound 6b] | 4.68 | 4.47 | 113.45 ± 5.59 | 6.933 µM (Fe^2+ Eq.) | 3.92 | –
4 | N#CC1=C(c2ccc(Cl)cc2)Nc2c(c(-c3cccs3)nn2-c2ccccc2)C12C(=O)Nc1ccccc12 (stereo not shown) [Compound 6d] | 4.31 | < 4.30 | 33.43 ± 1.24 | 10.99 µM (Fe^2+ Eq.) | – | –
5 | N#CC1=C(c2ccccc2)Nc2c(c(-c3cccs3)nn2-c2ccccc2)C12C(=O)Nc1ccc(Cl)cc12 (stereo not shown) [Compound 6e] | 5.08 | 4.87 | 36.03 ± 1.37 | 10.12 µM (Fe^2+ Eq.) | 4.16 | Morphological changes of HepG2 cells [13]: cell rounding, shrinkage and monolayer disruption
6 | Cc1ccc(C2=C(C#N)C3(C(=O)Nc4ccc(Cl)cc43)c3c(-c4cccs4)nn(-c4ccccc4)c3N2)cc1 (stereo not shown) [Compound 6f] | 4.49 | 4.53 | 40.31 ± 2.61 | 11.36 µM (Fe^2+ Eq.) | 3.80 | –
7 | COc1ccc(C2=C(C#N)C3(C(=O)Nc4ccc(Cl)cc43)c3c(-c4cccs4)nn(-c4ccccc4)c3N2)cc1 (stereo not shown) [Compound 6g] | < 4.30 | < 4.30 | 97.47 ± 5.62 | 7.79 µM (Fe^2+ Eq.) | – | –
8 | N#CC1=C(c2ccc(Cl)cc2)Nc2c(c(-c3cccs3)nn2-c2ccccc2)C12C(=O)Nc1ccc(Cl)cc12 (stereo not shown) [Compound 6h] | 4.70 | < 4.30 | 46.29 ± 2.18 | 11.35 µM (Fe^2+ Eq.) | – | –
9 | N#CC1=C(c2ccccc2)Nc2c(c(-c3cccs3)nn2-c2ccccc2)C12C(=O)Nc1ccc(Br)cc12 (stereo not shown) [Compound 6i] | 5.20 | 4.75 | 36.38 ± 2.71 | 11.88 µM (Fe^2+ Eq.) | 4.11 | Morphological changes of HepG2 cells [13]: cell rounding, shrinkage and monolayer disruption
10 | Cc1ccc(C2=C(C#N)C3(C(=O)Nc4ccc(Br)cc43)c3c(-c4cccs4)nn(-c4ccccc4)c3N2)cc1 (stereo not shown) [Compound 6j] | 5.00 | 4.58 | 43.42 ± 3.04 | 10.34 µM (Fe^2+ Eq.) | 3.83 | –
11 | N#CC1=C(c2ccc(Cl)cc2)Nc2c(c(-c3cccs3)nn2-c2ccccc2)C12C(=O)Nc1ccc(Br)cc12 (stereo not shown) [Compound 6l] | 4.90 | < 4.30 | 41.36 ± 2.17 | 11.59 µM (Fe^2+ Eq.) | – | –

Now from value to compound, other results behind:

Row | pIC50 [1] | pIC50 [2] | DPPH radical scavenging IC50 [4] [mg/L] | SMILES | FRAP, µM (Fe^2+ Eq.) [3] | pIC50 [5] | further results
12 | 6.92 | 6.21 | – | COc1cccc2c1C(=O)c1c(O)c3c(c(O)c1C2=O)C[C@@](O)(C(=O)CO)C[C@@H]3O[C@H]1C[C@H](N)[C@H](O)[C@H](C)O1 [Adriamycin, reference compound] | – | – | –
13 | 4.72 | 4.36 | 43.04 ± 2.39 | COc1ccc(C2=C(C#N)C3(C(=O)Nc4ccccc43)c3c(-c4cccs4)nn(-c4ccccc4)c3N2)cc1 (stereo not shown) [Compound 6c] | 10.32 µM (Fe^2+ Eq.) | 3.85 | –
14 | 4.88 | 4.41 | 69.25 ± 4.25 | COc1ccc(C2=C(C#N)C3(C(=O)Nc4ccc(Br)cc43)c3c(-c4cccs4)nn(-c4ccccc4)c3N2)cc1 (stereo not shown) [Compound 6k] | 8.499 µM (Fe^2+ Eq.) | 3.87 | –
15 | 4.51 | 4.61 | 28.07 ± 1.63 | COc1ccc2c(c1)C1(C(=O)N2)C(C#N)=C(c2ccccc2)Nc2c1c(-c1cccs1)nn2-c1ccccc1 (stereo not shown) [Compound 6m] | 12.13 µM (Fe^2+ Eq.) | 3.73 | –
16 | < 4.30 | 4.37 | 46.29 ± 2.52 | COc1ccc2c(c1)C1(C(=O)N2)C(C#N)=C(c2ccc(C)cc2)Nc2c1c(-c1cccs1)nn2-c1ccccc1 (stereo not shown) [Compound 6n] | 11.58 µM (Fe^2+ Eq.) | – | –
17 | < 4.30 | < 4.30 | 58.82 ± 3.14 | COc1ccc(C2=C(C#N)C3(C(=O)Nc4ccc(OC)cc43)c3c(-c4cccs4)nn(-c4ccccc4)c3N2)cc1 (stereo not shown) [Compound 6o] | 11.90 µM (Fe^2+ Eq.) | – | –
18 | < 4.30 | < 4.30 | 55.05 ± 3.41 | COc1ccc2c(c1)C1(C(=O)N2)C(C#N)=C(c2ccc(Cl)cc2)Nc2c1c(-c1cccs1)nn2-c1ccccc1 (stereo not shown) [Compound 6p] | 11.18 µM (Fe^2+ Eq.) | – | –
